Data set [1] is described as follows: Stability study, comparative ubiquinol vs cocrystals: storage in a chamber, periodic analysis for ubiquinone and the form detected. The data set is classed as physicochemical. The note with it: for stability at 25° C. measured by controlling the moment when ubiquinone was detected: "<" ubiquinone detected at least after the indicated days, ">" ubiquinone not detected yet. How it is done: Powder X-Ray diffraction (PXRD) analyses were performed by sandwiching the powder samples between polyester films of 10 micrometres of thickness or polyamide (kapton) films of 15 micrometres of thickness and analysed in a PANalytical X′Pert PRO MPD q/q powder diffractometer of 240 millimetres of radius, in a configuration of convergent beam with a focalizing mirror and a flat sample transmission geometry, in the following experimental conditions: Cu Kα radiation (λ=1.5406 Å); Work power: 45 kV and 40 mA; Incident beam slits defining a beam height of 0.4 millimetres; Incident and diffracted beam 0.02 radians Soller slits; PIXcel detector: Active length=3.347°; 2θ/θ scans from 2 to 40° 2θ with a step size of 0.026° 2θ and a measuring time of 76 seconds per step.
The stability of the different forms has been studied under two experimental conditions. The samples were stored under both conditions inside a Series FD Binder chamber and they were analyzed periodically: • condition A: 25° C. and 57% of relative humidity; • condition B: 40° C. and 75% of relative humidity.
A saturated solution of sodium bromide salt (57% RH) and a saturated solution of sodium chloride (75% RH) were used to control relative humidity.
75% HR by indicating the form detected after the mentioned days. No ubiquinone was detected at least after 14 days.

Assay in data set [2]: as above
The data set is classed as physicochemical. The note with it: relative humidity not controlled, "<" ubiquinone detected at least after the indicated days, ">" ubiquinone not detected yet.

The mark [3] stands for this setting: 25° C.-57% HR, 435 days, ^1: low crystallinity.
Where [4] appears, read: 40° C.-75% HR, 14 days, "—^1" (footnote *): the sample absorbed moisture showing a liquid texture.
[5] abbreviates: 40° C.-75% HR, 51 days, ^1: low crystallinity.

A value given as a limit tells only on which side of the number the result lay.

As for `COc1c(O)c(C)c(CC=C(C)CCC=C(C)CCC=C(C)CCC=C(C)CCC=C(C)CCC=C(C)CCC=C(C)CCC=C(C)CCC=C(C)CCC=C(C)C)c(O)c1OC.O=C(O)c1cc(O)cc(O)c1` [P58-V, Cocrystal of Ubiquinol and 3,5-dihydroxybenzoic Acid], the stability result in data set [1] (compared with cocrystal P58-III) is “expected to be similar to cocrystal P58-III”.

`COc1c(O)c(C)c(CC=C(C)CCC=C(C)CCC=C(C)CCC=C(C)CCC=C(C)CCC=C(C)CCC=C(C)CCC=C(C)CCC=C(C)CCC=C(C)C)c(O)c1OC.O=C(O)c1cccc(O)c1` [P58-VI, Cocrystal of Ubiquinol and 3-Hydroxybenzoic Acid]: the “stability at 25° C. measured by controlling the moment when ubiquinone was detected” value in data set [2] was >64 days; in data set [1] (25° C.-57% HR) it was >434 days. The form detected result was “P58-VI” in data set [1] (25° C.-57% HR, 7 days); “P58-VI” in data set [1] (25° C.-57% HR, 14 days); “P58-VI” in data set [1] (25° C.-57% HR, 51 days); “P58-VI” in data set [1] (25° C.-57% HR, 119 days); “P58-VI” in data set [1] (25° C.-57% HR, 288 days); “P58-VI^1” in data set [1] (setting [3]). In addition, the form detected result in data set [1] (25° C.-57% HR, time 0) is listed as “P58-VI”; in data set [1] (40° C.-75% HR, 7 days), “P58-VI”; in data set [1] (setting [4]), “P58-VI”; in data set [1] (setting [5]) it was “Ubiquinone^1”; in data set [1] (40° C.-75% HR, time 0), “P58-VI”.

Consider “Cocrystal Hydrate of Ubiquinol and 3,4-dihydroxybenzoic Acid [P58-III]”, for which the form detected result in data set [1] (25° C.-57% HR, 7 days) is “P58-III”; in data set [1] (25° C.-57% HR, 14 days), “P58-III”; in data set [1] (25° C.-57% HR, 51 days), “P58-III”; in data set [1] (25° C.-57% HR, 84 days) it was “P58-III”; in data set [1] (25° C.-57% HR, 119 days), “P58-III”; in data set [1] (25° C.-57% HR, 235 days), “P58-III”. Besides, the form detected entry is given as “P58-III” in data set [1] (25° C.-57% HR, 405 days); “P58-III” in data set [1] (setting [3]); “P58-III^1” in data set [1] (25° C.-57% HR, 551 days, ^1: low crystallinity); “P58-III” in data set [1] (25° C.-57% HR, time 0); “P58-III” in data set [1] (40° C.-75% HR, 7 days); “P58-III” in data set [1] (setting [4]). Besides, the form detected entry in data set [1] (setting [5]) is listed as “P58-III”; in data set [1] (40° C.-75% HR, 235 days), “Ubiquinone”; in data set [1] (40° C.-75% HR, time 0), “P58-III”.

For the compound Ubiquinol [reference compound], the “stability at 25° C. measured by controlling the moment when ubiquinone was detected” value is <50 days in data set [2] and <26 days in data set [1] (25° C.-57% HR). The form detected entry in data set [1] (25° C.-57% HR, 7 days) is “Form A”; in data set [1] (25° C.-57% HR, 14 days) it was “mixture Form A and Form B”; in data set [1] (25° C.-57% HR, 26 days), “mixture Form B and Ubiquinone”; in data set [1] (25° C.-57% HR, 37 days) it was “mixture Form B and Ubiquinone”; in data set [1] (25° C.-57% HR, 62 days, ^2: analyzed by 1H-NMR, confirms presence of Ubiquinone) it was “mixture Form B and Ubiquinone^2”; in data set [1] (25° C.-57% HR, 130 days), “mixture Form B and Ubiquinone”. Moreover, the form detected result is “mixture Form B and Ubiquinone” in data set [1] (25° C.-57% HR, 300 days); “Ubiquinone (low crystallinity)” in data set [1] (25° C.-57% HR, 446 days); “Form A” in data set [1] (25° C.-57% HR, time 0); “Form B” in data set [1] (40° C.-75% HR, 7 days); “Form A” in data set [1] (40° C.-75% HR, time 0).

These data come from patent publication US11731927B2, “Cocrystals of ubiquinol and compositions comprising them” (Center for Intelligent Research in Crystal Engineering, S.L., priority 2018, dated 2023).
